Kd data for one molecule are collected here from publication PMC9586938, “Picomolar fluorescent probes for compound affinity determination to carbonic anhydrase IX expressed in live cancer cells” (Scientific Reports, 2022).

Molecules are shown by their SMILES.

In the assay the target is T1, CAIX expressed on live HeLa cells (Homo sapiens, UniProt Q16790).
T1 construct: recombinant CAIX and endogenous CAIX expressed on the cell surface; endogenous in cells; host or cells: HeLa (WT), grown under hypoxia (1% O2)
Nature of the assay: Competition of unlabeled compound with 10 nM GZ19-32 on hypoxic HeLa cells (competitive binding model). It counts as cell-based. Conditions: fit parameter of the competitive binding model, HeLa cells; read-out: KdB (competing fluorescent compound, component B).

`NS(=O)(=O)c1c(F)c(F)c(S(=O)(=O)CCC(=O)Nc2ccc3c(c2)C(=O)OC32c3ccc(O)cc3Oc3cc(O)ccc32)c(NC2CCCCCCC2)c1F` [GZ19-32, 3-((2-(cyclooctylamino)-3,5,6-trifluoro-4-sulfamoylphenyl)sulfonyl)-N-(3',6'-dihydroxy-3-oxo-3H-spiro[isobenzofuran-1,9'-xanthen]-5-yl)propanamide]: the Kd was determined as 0.2 nM.
